Test results taken from patent US20180237441A1, “Chemical Compounds” (GlaxoSmithKline Intellectual Property (No.2) Limited, priority 2015, published 2018).
Like-named read-outs stand apart in the source and are kept apart here.

Target: T1, PERK (Homo sapiens, UniProt Q9NZJ5)
T1 sequence (Q9NZJ5 30-1116): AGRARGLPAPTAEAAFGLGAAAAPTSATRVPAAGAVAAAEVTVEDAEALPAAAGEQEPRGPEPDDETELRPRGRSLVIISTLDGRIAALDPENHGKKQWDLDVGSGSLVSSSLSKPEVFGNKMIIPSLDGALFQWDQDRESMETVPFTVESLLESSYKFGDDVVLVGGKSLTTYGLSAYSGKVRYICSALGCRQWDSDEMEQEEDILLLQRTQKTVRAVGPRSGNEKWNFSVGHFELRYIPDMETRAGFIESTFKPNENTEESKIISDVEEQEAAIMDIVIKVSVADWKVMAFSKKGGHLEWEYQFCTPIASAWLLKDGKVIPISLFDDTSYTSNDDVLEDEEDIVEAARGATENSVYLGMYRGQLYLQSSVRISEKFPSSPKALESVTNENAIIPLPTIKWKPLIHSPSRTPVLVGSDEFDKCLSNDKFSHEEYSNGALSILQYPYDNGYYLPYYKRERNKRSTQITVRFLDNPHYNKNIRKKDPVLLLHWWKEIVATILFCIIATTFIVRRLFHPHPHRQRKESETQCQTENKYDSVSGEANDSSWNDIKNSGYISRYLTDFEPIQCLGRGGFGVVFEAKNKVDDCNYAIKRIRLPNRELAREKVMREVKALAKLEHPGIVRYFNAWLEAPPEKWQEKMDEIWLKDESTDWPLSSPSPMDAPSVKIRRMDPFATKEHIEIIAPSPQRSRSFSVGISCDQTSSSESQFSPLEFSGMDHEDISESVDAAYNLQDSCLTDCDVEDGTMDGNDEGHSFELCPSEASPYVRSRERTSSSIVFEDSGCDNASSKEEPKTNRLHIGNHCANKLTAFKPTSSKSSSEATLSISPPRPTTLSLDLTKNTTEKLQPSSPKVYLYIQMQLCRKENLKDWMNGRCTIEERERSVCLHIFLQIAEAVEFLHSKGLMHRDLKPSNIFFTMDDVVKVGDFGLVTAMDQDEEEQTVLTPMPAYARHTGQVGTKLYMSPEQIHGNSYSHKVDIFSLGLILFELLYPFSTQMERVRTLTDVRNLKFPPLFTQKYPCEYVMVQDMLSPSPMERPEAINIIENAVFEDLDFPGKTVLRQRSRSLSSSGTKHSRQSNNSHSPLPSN
Test: PERK enzyme assay (HTRF)
Format: biochemical
Details: at least one experimental run
Protocol: Compounds of the invention were assayed for PERK enzyme inhibitory activity with modifications to previously reported conditions (Axten et al. J. Med. Chem., 2012, 55, 7193-7207). Briefly, various concentrations of compounds (maximum 1% DMSO) were dispensed into 384-well plates containing GST-PERK enzyme. After 30-60 minutes of compound pre-incubation, ATP and biotin-eIF2α were added and after 60 minutes the reaction was quenched. After 2 hrs, a fluorescence plate reader was used to measure inhibition and IC50s were calculated.
Enzyme Assay Protocol for PKR-Like Endoplasmic Reticulum Kinase (PERK)—HTRF —% Inhibition
Assay Buffer contains HEPES (pH7.5) 10 mM, CHAPS 2 mM, MgCl2 5 mM and DTT 1 mM in water
Detection Buffer contains HEPES (pH7.5) 10 mM and CHAPS 2 mM in water Assay Plate Preparation:
1. Enzyme Preparation: • 4× Enzyme solution was prepared immediately prior to adding to compound plates. • 3 nM of GST-PERK in Assay buffer. Final [PERK] in 10 μl assay volume=0.75 nM
2. Substrate Preparation: • 4× Substrate solution was prepared immediately prior to adding to compound plates. • 4× Substrate solution in assay buffer 2000 μM ATP and 160 nM Biotin-eIF2α • Final [ATP] in 10 μl assay volume=500 μM • Final [biotin-eIF2a] in 10 μl assay volume=40 nM.
3. Quench/Detection Solution: • 16 nM eIF2 Phospho-Antibody • 16 nM Eu anti-Rabbit IgG • 160 nM Streptavidin-APC • 60 mM EDTA • Final concentration in 10 μL assay volume: 4 nM eIF2 Phospho-Antibody, 4 nM Eu anti-Rabbit IgG 40 nM Streptavidin-APC
The activity of compounds in the PERK enzyme assay was determined at PERK Enzyme (500 μM ATP) IC50 (nM).

[1] = PERK Enzyme (500 μM ATP) IC50, read-out: PERK Activity
[2] = 500 μM ATP, read-out: PERK Enzyme (500 μM ATP) IC50

Row | SMILES | IC50 [1] | IC50 [2]
1 | CCN1C(=O)N(c2ccc(-c3cn(C)c4nc(C)nc(N)c34)c(F)c2)CC1c1cc(F)ccc1F (single isomer, unassigned) [Example 54, 1-(4-(4-amino-2,7-dimethyl-7H-pyrrolo[2,3-d]pyrimidin-5-yl)-3-fluorophenyl)-4-(2,5-difluorophenyl)-3-ethylimidazolidin-2-one] | < 100 nM | 
2 | CN1C(=O)N(c2ccc(-c3cn(C)c4ncnc(N)c34)c(F)c2)CC1c1ccc(F)cc1 (single isomer, unassigned) [Example 59, 1-(4-(4-amino-7-methyl-7H-pyrrolo[2,3-d]pyrimidin-5-yl)-3-fluorophenyl)-4-(4-fluorophenyl)-3-methylimidazolidin-2-one] | < 100 nM | 3.9 nM
3 | Cc1nc(N)c2c(-c3ccc(N4CC(C5CCCCC5)N(C)C4=O)cc3F)cn(C)c2n1 (single isomer, unassigned) [Example 61, 1-(4-(4-amino-2,7-dimethyl-7H-pyrrolo[2,3-d]pyrimidin-5-yl)-3-fluorophenyl)-4-cyclohexyl-3-methylimidazolidin-2-one] | 100 to 1000 nM | 
4 | CN1C(=O)N(c2ccc(-c3cn(C)c4ncnc(N)c34)c(F)c2)CC1C1CCCCC1 (single isomer, unassigned) [Example 62, 1-(4-(4-amino-7-methyl-7H-pyrrolo[2,3-d]pyrimidin-5-yl)-3-fluorophenyl)-4-cyclohexyl-3-methylimidazolidin-2-one] | < 100 nM | 
5 | CN1C(=O)N(c2ccc(-c3cn(C)c4ncnc(N)c34)c(F)c2)CC1C1CCCCC1 (single isomer, unassigned) [Example 63, 1-(4-(4-amino-7-methyl-7H-pyrrolo[2,3-d]pyrimidin-5-yl)-3-fluorophenyl)-4-cyclohexyl-3-methylimidazolidin-2-one] | < 100 nM | 

Next, values leading:

Row | IC50 [1] | IC50 [2] | SMILES
6 | < 100 nM | 86.9 nM | Cc1nc(N)c2c(-c3ccc(N4CC(c5ccc(F)cc5F)N(C)C4=O)cc3F)cn(C)c2n1 (single isomer, unassigned) [Example 66, 1-(4-(4-amino-2,7-dimethyl-7H-pyrrolo[2,3-d]pyrimidin-5-yl)-3-fluorophenyl)-4-(2,4-difluorophenyl)-3-methylimidazolidin-2-one]
7 | 100 to 1000 nM |  | CCN1C(=O)N(c2ccc(-c3cn(C)c4nc(C)nc(N)c34)c(F)c2)CC1c1ccc(F)cc1F (single isomer, unassigned) [Example 67, 1-(4-(4-amino-2,7-dimethyl-7H-pyrrolo[2,3-d]pyrimidin-5-yl)-3-fluorophenyl)-4-(2,4-difluorophenyl)-3-ethylimidazolidin-2-one]
8 | < 100 nM | 18.6 nM | Cc1nc(N)c2c(-c3ccc(N4CC(c5ccc(F)cc5)N(C)C4=O)cc3F)cn(C)c2n1 (single isomer, unassigned) [Example 70, 1-(4-(4-amino-2,7-dimethyl-7H-pyrrolo[2,3-d]pyrimidin-5-yl)-3-fluorophenyl)-4-(4-fluorophenyl)-3-methylimidazolidin-2-one]
9 | 100 to 1000 nM |  | Cc1nc(N)c2c(-c3ccc(N4CC(c5c(F)cc(F)cc5F)N(C)C4=O)cc3F)cn(C)c2n1 (single isomer, unassigned) [Example 71, 1-(4-(4-amino-2,7-dimethyl-7H-pyrrolo[2,3-d]pyrimidin-5-yl)-3-fluorophenyl)-3-methyl-4-(2,4,6-trifluorophenyl)imidazolidin-2-one]
10 | < 100 nM |  | CN1C(=O)N(c2ccc(-c3cn(C)c4ncnc(N)c34)c(F)c2)CC1c1cccc(F)c1F (single isomer, unassigned) [Example 77, 1-(4-(4-amino-7-methyl-7H-pyrrolo[2,3-d]pyrimidin-5-yl)-3-fluorophenyl)-4-(2,3-difluorophenyl)-3-methylimidazolidin-2-one]
11 | < 100 nM |  | Cc1nc(N)c2c(-c3ccc(N4CC(c5ccc(F)c(F)c5)N(C)C4=O)cc3F)cn(C)c2n1 (single isomer, unassigned) [Example 80, 1-(4-(4-amino-2,7-dimethyl-7H-pyrrolo[2,3-d]pyrimidin-5-yl)-3-fluorophenyl)-4-(3,4-difluorophenyl)-3-methylimidazolidin-2-one]
